Assays:
Format in all cases: biochemical
[1] = biological target: T1, Rasamsonia emersonii beta-glucosidase, wild-type, SEQ ID NO: 2 (Rasamsonia emersonii, UniProt Q8TGI8); experiment: Kinetics of cellobiose hydrolysis with and without 20 g/l glucose (NMR, MTP scale, model fit), wild type; details: 10 g/l cellobiose, pH 4.5, 65° C., 20 min; Km set to 0.1 g/L
T1 sequence (Q8TGI8 20-857): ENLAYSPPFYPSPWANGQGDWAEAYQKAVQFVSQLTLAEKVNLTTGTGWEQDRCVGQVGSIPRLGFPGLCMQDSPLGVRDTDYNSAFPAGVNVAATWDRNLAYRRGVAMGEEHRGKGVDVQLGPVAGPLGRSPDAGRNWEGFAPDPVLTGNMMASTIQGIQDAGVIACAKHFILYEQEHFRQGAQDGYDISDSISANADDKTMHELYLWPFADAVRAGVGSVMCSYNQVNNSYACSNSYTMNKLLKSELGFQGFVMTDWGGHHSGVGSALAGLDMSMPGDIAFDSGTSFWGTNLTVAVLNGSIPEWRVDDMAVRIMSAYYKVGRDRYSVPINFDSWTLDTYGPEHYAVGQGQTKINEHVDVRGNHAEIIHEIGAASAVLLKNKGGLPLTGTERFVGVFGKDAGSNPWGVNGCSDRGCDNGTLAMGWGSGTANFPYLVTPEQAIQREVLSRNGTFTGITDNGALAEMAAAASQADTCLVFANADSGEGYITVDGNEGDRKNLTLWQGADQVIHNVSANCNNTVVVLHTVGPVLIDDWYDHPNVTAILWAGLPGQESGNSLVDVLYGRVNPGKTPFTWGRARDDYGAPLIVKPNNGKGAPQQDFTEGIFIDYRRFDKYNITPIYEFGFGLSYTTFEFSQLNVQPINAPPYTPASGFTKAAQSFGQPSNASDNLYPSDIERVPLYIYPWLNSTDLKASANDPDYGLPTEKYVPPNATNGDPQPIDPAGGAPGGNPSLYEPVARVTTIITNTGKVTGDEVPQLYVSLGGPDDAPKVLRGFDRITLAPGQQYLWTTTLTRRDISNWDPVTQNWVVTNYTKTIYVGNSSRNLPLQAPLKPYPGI
Description: (§1) For the follow-up experiment, five dilutions were made: 2-fold, 4-fold, 8-fold, 16-fold and 32-fold. The beta-glucosidase activity of the variant polypeptides and the wild-type beta-glucosidase was further analyzed in a MTP scale activity assay using cellobiose as substrate and monitoring cellobiose hydrolysis via glucose formation with NMR of the undiluted sample and the five dilutions. The same assay was performed for all dilutions in presence of 20 g/l glucose to determine the glucose tolerance. […] Subsequently, cellobiose and glucose levels in the samples were analyzed with NMR.
(§2) After enzymatic incubation, 100 μl of internal standard solution containing 20 g/I maleic acid and EDTA (40 g/L) in demineralized water, was added to each sample. […] 1D ^1H NMR spectra were recorded on a Bruker Avance III HD 500 MHz, equipped with a He cooled cryo-probe, using a pulse program without water suppression at a temperature of 29° C. with a 90 degrees excitation pulse, acquisition time of 2.7 s and relaxation delay of 30 s. The analyte concentrations (in g/L) were calculated based on the following signals (δ relative to DSS): Cellobiose: H1′ cellobiose peak at 4.50 ppm (d, 1H, J=8 Hz); Glucose: α-H1 glucose/α-H1 cellobiose peak at 5.22 ppm (d, 0.38 H, J=4 Hz). The glucose concentration was determined after correction for cellobiose. […]

[2] = biological target: Rasamsonia emersonii beta-glucosidase variant polypeptide 2 (SEQ ID NO: 2 with substitution N103A) (Rasamsonia emersonii, UniProt Q8TGI8, N103A); experiment: Kinetics of cellobiose hydrolysis with and without 20 g/l glucose (NMR, MTP scale, model fit), variant polypeptide 2; details: 10 g/l cellobiose, pH 4.5, 65° C., 20 min; Km set to 0.1 g/L
Description: as §1, §2

[3] = biological target: Rasamsonia emersonii beta-glucosidase variant polypeptide 3 (SEQ ID NO: 2 with substitution G142S) (Rasamsonia emersonii, UniProt Q8TGI8, G142S); experiment: Kinetics of cellobiose hydrolysis with and without 20 g/l glucose (NMR, MTP scale, model fit), variant polypeptide 3; details: 10 g/l cellobiose, pH 4.5, 65° C., 20 min; Km set to 0.1 g/L
Description: as §1, §2

[4] = biological target: Rasamsonia emersonii beta-glucosidase variant polypeptide 1 (SEQ ID NO: 2 with substitutions M90L + M335V + M485I) (Rasamsonia emersonii, UniProt Q8TGI8, M335V/M485I/M90L); experiment: Kinetics of cellobiose hydrolysis with and without 20 g/l glucose (NMR, MTP scale, model fit), variant polypeptide 1; details: 10 g/l cellobiose, pH 4.5, 65° C., 20 min; Km set to 0.1 g/L
Description: as §1, §2

[5] = biological target: Rasamsonia emersonii beta-glucosidase variant polypeptide 4 (SEQ ID NO: 2 with substitution L606A) (Rasamsonia emersonii, UniProt Q8TGI8, L606A); experiment: Kinetics of cellobiose hydrolysis with and without 20 g/l glucose (NMR, MTP scale, model fit), variant polypeptide 4; details: 10 g/l cellobiose, pH 4.5, 65° C., 20 min; Km set to 0.1 g/L
Description: as §1, §2

[6] = biological target: T1, Rasamsonia emersonii beta-glucosidase, wild-type, SEQ ID NO: 2; experiment: Glucose inhibition of initial rate of cellobiose hydrolysis, 100 ml scale (HPLC), wild type; details: 20 g/l glucose, 30 mM cellobiose, pH 4.5, 62° C., 4.5 μg/ml enzyme; read-out: Ratio (V0 in presence of glucose/V0 in absence of glucose)
Description: The hits selected from the MTP scale assay were subsequently further characterized by monitoring cellobiose conversion at multiple time points at a larger scale. The beta-glucosidase having the amino acid sequence of SEQ ID NO: 2 was used as reference (parent/wild-type beta-glucosidase). The assay was done as follows: the variant polypeptides and the reference beta-glucosidase were incubated at a concentration of 4.5 μg/ml in a 100 mM NaAc-buffer pH 4.5 with 30 mM cellobiose in a final volume of 100 ml for 2 hours at 62° C. under continuous stirring. […] The glucose and cellobiose content of the samples was determined using a High-Performance Liquid Chromatography System (Agilent 1100) equipped with a refection index detector (Agilent 1260 Infinity). […] The glucose and cellobiose were identified and quantified according to the retention time, which was compared to the external glucose and cellobiose standards ranging from 0.2; 0.4; 1.0; 2.0 g/l.
The concentration cellobiose was plotted against time and the linear part of this curve (the linear part of the cellobiose hydrolysis) was used to calculate the V0 (the initial rate of cellobiose hydrolysis) in the presence and absence of 20 g/l glucose. The ratio of these two calculated rates (V0 in presence of glucose/V0 in absence of glucose) was calculated for the wild-type beta-glucosidase and the variant polypeptides and is listed in Table 2. […]

Rasamsonia emersonii beta-glucosidase variant polypeptide 4 (SEQ ID NO: 2 with substitution L606A), sequence (Q8TGI8 entry or part of it L606A): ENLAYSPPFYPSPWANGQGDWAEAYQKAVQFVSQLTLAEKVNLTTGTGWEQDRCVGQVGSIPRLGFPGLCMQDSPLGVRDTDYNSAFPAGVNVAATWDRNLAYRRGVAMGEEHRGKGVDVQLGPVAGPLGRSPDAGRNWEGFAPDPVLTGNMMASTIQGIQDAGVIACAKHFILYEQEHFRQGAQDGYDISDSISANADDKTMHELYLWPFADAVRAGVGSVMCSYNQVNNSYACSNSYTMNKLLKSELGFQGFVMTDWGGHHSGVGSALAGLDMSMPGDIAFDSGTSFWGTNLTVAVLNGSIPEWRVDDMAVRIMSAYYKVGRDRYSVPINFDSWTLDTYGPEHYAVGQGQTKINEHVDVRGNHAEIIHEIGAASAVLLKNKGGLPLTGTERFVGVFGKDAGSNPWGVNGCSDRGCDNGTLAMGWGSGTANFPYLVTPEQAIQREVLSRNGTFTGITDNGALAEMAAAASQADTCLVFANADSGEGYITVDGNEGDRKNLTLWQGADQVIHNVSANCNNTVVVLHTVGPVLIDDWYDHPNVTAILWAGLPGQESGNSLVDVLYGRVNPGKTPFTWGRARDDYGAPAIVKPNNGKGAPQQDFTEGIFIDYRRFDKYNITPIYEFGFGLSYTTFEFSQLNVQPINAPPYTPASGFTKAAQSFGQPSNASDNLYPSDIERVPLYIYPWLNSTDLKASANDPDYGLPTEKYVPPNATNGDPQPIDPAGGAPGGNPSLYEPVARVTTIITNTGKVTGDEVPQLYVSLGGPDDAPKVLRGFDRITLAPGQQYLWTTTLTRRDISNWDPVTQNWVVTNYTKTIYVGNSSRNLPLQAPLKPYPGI
Rasamsonia emersonii beta-glucosidase variant polypeptide 1 (SEQ ID NO: 2 with substitutions M90L + M335V + M485I), sequence (Q8TGI8 entry or part of it M90L/M335V/M485I): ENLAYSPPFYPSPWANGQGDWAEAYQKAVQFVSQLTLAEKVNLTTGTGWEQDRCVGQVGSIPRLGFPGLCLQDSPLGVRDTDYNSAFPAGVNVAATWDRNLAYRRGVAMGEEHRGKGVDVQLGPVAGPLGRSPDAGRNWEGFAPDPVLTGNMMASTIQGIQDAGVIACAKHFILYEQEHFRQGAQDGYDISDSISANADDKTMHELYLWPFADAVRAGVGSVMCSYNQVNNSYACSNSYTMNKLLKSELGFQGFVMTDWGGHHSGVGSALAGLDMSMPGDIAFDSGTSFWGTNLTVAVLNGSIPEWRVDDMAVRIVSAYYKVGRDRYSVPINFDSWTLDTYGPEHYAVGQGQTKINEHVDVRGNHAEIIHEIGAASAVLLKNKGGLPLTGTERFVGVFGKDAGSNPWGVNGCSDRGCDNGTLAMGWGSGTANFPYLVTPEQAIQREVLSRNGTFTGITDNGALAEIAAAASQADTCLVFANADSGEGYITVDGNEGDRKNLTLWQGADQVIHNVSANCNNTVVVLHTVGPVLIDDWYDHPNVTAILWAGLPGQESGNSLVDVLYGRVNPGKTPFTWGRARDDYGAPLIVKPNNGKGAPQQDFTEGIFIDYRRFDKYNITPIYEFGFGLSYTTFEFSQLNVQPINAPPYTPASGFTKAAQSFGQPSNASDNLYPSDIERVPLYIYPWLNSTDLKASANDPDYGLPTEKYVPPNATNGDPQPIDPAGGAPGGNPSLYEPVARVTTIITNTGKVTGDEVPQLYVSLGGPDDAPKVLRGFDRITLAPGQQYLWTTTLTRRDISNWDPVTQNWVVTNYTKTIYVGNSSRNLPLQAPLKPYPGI
Rasamsonia emersonii beta-glucosidase variant polypeptide 3 (SEQ ID NO: 2 with substitution G142S), sequence (Q8TGI8 entry or part of it G142S): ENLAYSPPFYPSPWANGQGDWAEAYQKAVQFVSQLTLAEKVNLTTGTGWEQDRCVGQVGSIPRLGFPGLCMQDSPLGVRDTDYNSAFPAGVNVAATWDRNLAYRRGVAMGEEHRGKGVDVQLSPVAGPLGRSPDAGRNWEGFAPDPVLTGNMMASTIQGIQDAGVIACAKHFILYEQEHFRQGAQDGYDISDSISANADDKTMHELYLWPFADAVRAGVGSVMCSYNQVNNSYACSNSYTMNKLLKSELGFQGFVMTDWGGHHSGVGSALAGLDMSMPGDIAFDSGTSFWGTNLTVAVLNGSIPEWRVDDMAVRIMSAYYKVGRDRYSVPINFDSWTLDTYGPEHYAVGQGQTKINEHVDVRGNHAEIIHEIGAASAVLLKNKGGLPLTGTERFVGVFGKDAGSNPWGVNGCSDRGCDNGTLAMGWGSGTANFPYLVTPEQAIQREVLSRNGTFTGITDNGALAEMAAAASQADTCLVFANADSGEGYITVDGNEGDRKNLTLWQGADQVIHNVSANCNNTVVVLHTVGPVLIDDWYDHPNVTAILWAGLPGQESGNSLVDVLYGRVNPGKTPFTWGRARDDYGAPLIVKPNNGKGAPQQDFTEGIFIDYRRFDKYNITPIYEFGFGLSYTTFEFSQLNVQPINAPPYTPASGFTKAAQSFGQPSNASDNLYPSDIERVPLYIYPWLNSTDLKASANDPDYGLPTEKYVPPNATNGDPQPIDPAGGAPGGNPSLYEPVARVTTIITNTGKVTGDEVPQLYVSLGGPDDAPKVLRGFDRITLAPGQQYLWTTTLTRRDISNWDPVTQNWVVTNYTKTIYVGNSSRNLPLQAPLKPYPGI
Rasamsonia emersonii beta-glucosidase variant polypeptide 2 (SEQ ID NO: 2 with substitution N103A), sequence (Q8TGI8 entry or part of it N103A): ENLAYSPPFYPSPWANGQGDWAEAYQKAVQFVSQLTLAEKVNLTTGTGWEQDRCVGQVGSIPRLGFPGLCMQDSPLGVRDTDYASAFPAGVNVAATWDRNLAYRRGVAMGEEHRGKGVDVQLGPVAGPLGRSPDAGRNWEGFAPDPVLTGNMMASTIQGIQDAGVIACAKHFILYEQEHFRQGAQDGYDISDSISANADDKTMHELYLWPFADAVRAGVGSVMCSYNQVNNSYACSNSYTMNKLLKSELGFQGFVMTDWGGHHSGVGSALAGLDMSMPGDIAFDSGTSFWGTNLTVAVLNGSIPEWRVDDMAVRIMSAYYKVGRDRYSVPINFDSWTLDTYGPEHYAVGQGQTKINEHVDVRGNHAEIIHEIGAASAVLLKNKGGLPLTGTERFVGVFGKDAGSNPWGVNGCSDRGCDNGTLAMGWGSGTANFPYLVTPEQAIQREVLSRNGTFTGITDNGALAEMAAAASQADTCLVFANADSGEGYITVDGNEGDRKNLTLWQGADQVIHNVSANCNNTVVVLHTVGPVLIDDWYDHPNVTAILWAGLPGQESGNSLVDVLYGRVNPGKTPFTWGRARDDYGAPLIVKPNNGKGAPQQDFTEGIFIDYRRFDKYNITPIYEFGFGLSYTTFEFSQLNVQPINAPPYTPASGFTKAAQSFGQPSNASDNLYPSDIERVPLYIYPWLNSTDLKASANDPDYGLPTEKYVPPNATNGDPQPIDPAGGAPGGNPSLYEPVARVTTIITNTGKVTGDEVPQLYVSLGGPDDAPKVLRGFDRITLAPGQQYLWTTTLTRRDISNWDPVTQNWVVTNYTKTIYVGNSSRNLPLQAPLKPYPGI

SMILES	kcat (cellobiose), model prediction [1]	kcat (cellobiose), model prediction [2]	kcat (cellobiose), model prediction [3]	kcat (cellobiose), model prediction [4]	kcat (cellobiose), model prediction [5]	activity at 20000 µg/mL [6]
OC[C@H]1O[C@@H](O[C@H]2[C@H](O)[C@@H](O)C(O)O[C@@H]2CO)[C@H](O)[C@@H](O)[C@@H]1O (stereo partly drawn) [cellobiose]	1.0 unitless	1.1 unitless	0.8 unitless	0.9 unitless	2.7 unitless	–
OC[C@H]1OC(O)[C@H](O)[C@@H](O)[C@@H]1O (stereo partly drawn) [glucose]	–	–	–	–	–	18%

Source: patent US10808235B2, “Beta-glucosidase and uses thereof” (priority 2015, dated 2020)
